Results on 17 compounds are retold here after publication PMC5681660, “Reduced hepatitis B and D viral entry using clinically applied drugs as novel inhibitors of the bile acid transporter NTCP” (Scientific Reports, 2017).

Where a name gives a salt, the structure may show the parent alone. Read-outs that look alike come from different tables or passages of the source.

The target in assay [1] is T1, human NTCP (Homo sapiens, UniProt Q14973).
T1 sequence (Q14973 1-349): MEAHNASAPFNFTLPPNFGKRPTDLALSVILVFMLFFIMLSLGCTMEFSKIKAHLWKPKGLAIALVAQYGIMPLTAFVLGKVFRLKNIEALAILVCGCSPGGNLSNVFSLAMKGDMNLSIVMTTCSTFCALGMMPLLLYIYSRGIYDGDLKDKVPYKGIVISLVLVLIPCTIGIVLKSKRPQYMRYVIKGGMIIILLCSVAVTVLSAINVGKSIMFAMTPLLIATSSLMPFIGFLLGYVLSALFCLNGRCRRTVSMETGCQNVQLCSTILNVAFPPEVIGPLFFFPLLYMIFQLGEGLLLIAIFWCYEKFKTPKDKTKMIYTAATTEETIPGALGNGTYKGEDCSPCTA
As to the kind of experiment: Screening fluorescent competitive Myrcludex B-FITC binding assay (96-well, 10 µM drug).

Assay [2] concerns the target T1, human NTCP. Kind of assay: Screening taurocholate uptake assay (96-well, [14C]taurocholate, 10 µM drug).
Where [3] appears, read: screen, 10 µM drug, Myrcludex B-FITC binding.
Setting [4] is: combined ranking from functional and binding screening assays.
[5] abbreviates: screen, 10 µM drug, taurocholate uptake.
The mark [6] stands for this setting: Prestwick library screen, 10 µM drug, B-score of Myrcludex B-FITC binding.
Where [7] appears, read: Prestwick library screen, 10 µM drug, B-score of taurocholate uptake.
Where [8] appears, read: combined ranking from functional and binding assay B-scores.
[9] abbreviates: Prestwick library screen, Myrcludex B-FITC binding, 10 µM drug.
Where [10] appears, read: Prestwick library screen, taurocholate uptake, 10 µM drug.
Where [11] appears, read: ranking score beside the functional and binding assay B-scores of the screen.

`CC(=O)OCC1=C(C(=O)O)N2C(=O)[C@@H](NC(=O)Cc3cccs3)[C@H]2SC1` [Cephalothin sodium salt]: the B-score binding assay on human NTCP [1] (setting [3]) was 0.561. Also, the Ranking score on human NTCP [2] (setting [4]) is reported as 427.172. In addition, on human NTCP [2] (setting [5]), the B-score functional assay was -1.381.

On human NTCP [1] (setting [3]), `CCN[C@H]1C[C@H](C)S(=O)(=O)c2sc(S(N)(=O)=O)cc21` [Dorzolamide hydrochloride] showed a B-score binding assay of -0.624. In addition, at human NTCP [2] (setting [4]), the Ranking score was 369.324. Further, at human NTCP [2] (setting [5]), the B-score functional assay is on record as -0.44.

With `CN(C)CCC(c1ccccc1)c1ccccn1` (stereo not drawn) [Pheniramine maleate], the B-score binding assay on human NTCP [1] (setting [3]) is given as -0.017. Further, at human NTCP [2] (setting [4]), the Ranking score stood at 447.397. At human NTCP [2] (setting [5]), the B-score functional assay is listed as -0.685.

Compound `O=C(O)c1cn(-c2ccc(F)cc2)c2cc(N3CCNCC3)c(F)cc2c1=O` [Sarafloxacin] displayed a B-score binding assay at human NTCP [1] (setting [3]) of -0.967. Also, the Ranking score on human NTCP [2] (setting [4]) came out at 305.771. In addition, the B-score functional assay at human NTCP [2] (setting [5]) was -0.49.

`Cc1c(Cl)cccc1Nc1ncccc1C(=O)O.NCCCC[C@H](N)C(=O)O` [Clonixin Lysinate] came in with a B-score binding assay at human NTCP [1] of 0. On human NTCP [2], this compound registered a B-score functional assay of -1.707 and a Ranking score of 317.248.

Take `Nc1nc(=O)n([C@@H]2CS[C@H](CO)O2)cc1F` [(-)-Emtricitabine]: on human NTCP [1] (setting [6]), the B-score binding assay came to 0.464. For the same compound, the B-score functional assay on human NTCP [2] (setting [7]) is listed as 1.373. At human NTCP [2] (setting [8]), the Ranking score is given as 1006.

In the case of `C#CCN[C@@H]1CCc2ccccc21` [Rasagiline], the B-score binding assay at human NTCP [1] (setting [9]) is 0.275. At human NTCP [2] (setting [10]), the B-score functional assay was -0.098. Moreover, the Ranking score on human NTCP [2] (setting [11]) amounted to 667.796.

At human NTCP [1] (setting [6]), `O=C(CCNNC(=O)c1ccncc1)NCc1ccccc1` [Nialamide] gave a B-score binding assay of 0.697. In addition, on human NTCP [2] (setting [7]), the B-score functional assay was determined as 0.331. For the same compound, the Ranking score at human NTCP [2] (setting [8]) turned out to be 907.486.

`CC(C)[N+](C)(CCC(C(N)=O)(c1ccccc1)c1ccccc1)C(C)C` [Isopropamide iodide] returned a B-score binding assay on human NTCP [1] (setting [9]) of 0.056. On human NTCP [2] (setting [10]), the B-score functional assay was 0.036. Besides, at human NTCP [2] (setting [11]), the Ranking score turned out to be 698.928.

With `Cc1ccc(Cl)c(Nc2ccccc2C(=O)[O-])c1Cl.O.[Na+]`, the B-score binding assay on human NTCP [1] (setting [3]) was 0.415. In addition, the Ranking score on human NTCP [2] (setting [4]) was 386.518. At human NTCP [2] (setting [5]), the B-score functional assay was -1.621.

In turn, `CCN(CC)CCNC(=O)c1ccc(N)cc1` [Procainamide hydrochloride] returned a B-score binding assay on human NTCP [1] (setting [9]) of -0.246. On human NTCP [2] (setting [10]), this compound displayed a B-score functional assay of 0.646. On human NTCP [2] (setting [11]), this compound came in with a Ranking score of 672.44.

The compound `CC1(C)O[C@@H]2[C@@H](CO[C@@]3(COS(N)(=O)=O)OC(C)(C)O[C@@H]23)O1` [Topiramate] displayed a B-score binding assay on human NTCP [1] (setting [9]) of -0.268. Moreover, at human NTCP [2] (setting [10]), the B-score functional assay is 1.004. Also, the Ranking score on human NTCP [2] (setting [11]) is given as 700.689.

In turn, `CN(C)CCCN1c2ccccc2Sc2ccccc21` [Promazine hydrochloride] showed a B-score binding assay at human NTCP [1] of -0.725. At human NTCP [2], this compound displayed a B-score functional assay of 0.194 and a Ranking score of 494.272.

Compound `CN1C(=O)CC(c2ccccc2)C1=O` (stereo not drawn) [Phensuximide] had a B-score binding assay at human NTCP [1] (setting [3]) of -1.044. Also, at human NTCP [2] (setting [4]), the Ranking score is listed as 401.836. The same compound showed a B-score functional assay on human NTCP [2] (setting [5]) of 0.043.

As for `COc1ccc2cc([C@@H](C)C(=O)[O-])ccc2c1.[Na+]` [(R) -Naproxen sodium salt], the B-score binding assay at human NTCP [1] came out at 0.921. At human NTCP [2], this compound registered a B-score functional assay of -0.341 and a Ranking score of 667.638.

`Nc1cc(C(Cl)=C(Cl)Cl)c(S(N)(=O)=O)cc1S(N)(=O)=O` [Clorsulon] registered a B-score binding assay on human NTCP [1] (setting [9]) of -0.388. At human NTCP [2] (setting [10]), this compound gave a B-score functional assay of 0.953. This compound also had a Ranking score on human NTCP [2] (setting [11]) of 659.111.

`Cn1cc[nH]c1=S` [Methimazole]: the B-score binding assay on human NTCP [1] (setting [6]) was 1.226. This compound returned a B-score functional assay at human NTCP [2] (setting [7]) of 0.936. In addition, the Ranking score at human NTCP [2] (setting [8]) came to 1068.39.
